The text below walks through data of ChEMBL document CHEMBL6153148, “Carboxamide-Bearing Panobinostat Analogues Designed To Interact with E103-D104 at the Cavity Opening of Class I HDAC Isoforms” (ACS Med Chem Lett, 2025).

The structures appear in SMILES notation.

For this assay, the target named is Histone deacetylase 2 (Homo sapiens, UniProt Q92769). In words: Inhibition of human HDAC2 using RHKKAc as substrate by fluorescence based analysis.
Chain of Histone deacetylase 2 (Q92769 whole entry): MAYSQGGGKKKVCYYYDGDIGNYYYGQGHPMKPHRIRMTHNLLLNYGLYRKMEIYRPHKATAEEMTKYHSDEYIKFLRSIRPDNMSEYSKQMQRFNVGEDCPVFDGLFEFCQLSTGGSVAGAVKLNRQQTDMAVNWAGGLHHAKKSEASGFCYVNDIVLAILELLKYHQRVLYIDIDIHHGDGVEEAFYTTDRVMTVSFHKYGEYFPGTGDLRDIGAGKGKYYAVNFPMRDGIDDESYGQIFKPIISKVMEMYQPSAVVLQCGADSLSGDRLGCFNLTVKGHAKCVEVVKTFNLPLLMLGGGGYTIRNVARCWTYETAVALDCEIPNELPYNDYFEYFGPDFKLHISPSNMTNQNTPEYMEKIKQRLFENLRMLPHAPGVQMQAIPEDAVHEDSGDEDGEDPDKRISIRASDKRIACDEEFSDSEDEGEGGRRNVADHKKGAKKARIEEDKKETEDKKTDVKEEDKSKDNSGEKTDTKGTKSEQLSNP
One may read the IC50 as the concentration that gives 50% inhibition. A lower IC50 goes with greater potency. In turn, `NC(=O)[C@H]1Cc2c([nH]c3ccccc23)[C@H](c2ccc(/C=C/C(=O)NO)cc2)N1` gave an IC50 of 3320 nM.
In turn, `NC(=O)[C@@H]1Cc2c([nH]c3ccccc23)[C@@H](c2ccc(/C=C/C(=O)NO)cc2)N1` displayed an IC50 of 450 nM.
Next, `NC(=O)[C@@H](Cc1c[nH]c2ccccc12)NCc1ccc(/C=C/C(=O)NO)cc1`: 420 nM; `Cc1[nH]c2ccccc2c1C[C@@H](NCc1ccc(/C=C/C(=O)NO)cc1)C(N)=O`: 530 nM; `NC(=O)[C@H](Cc1c[nH]c2ccccc12)NCc1ccc(/C=C/C(=O)NO)cc1`: 350 nM.
As to `NC(=O)[C@@H]1Cc2c([nH]c3ccccc23)[C@H](c2ccc(/C=C/C(=O)NO)cc2)N1`, 450 nM corresponded to half-maximal inhibition (IC50).
The compound `NC(=O)[C@H]1Cc2c([nH]c3ccccc23)[C@@H](c2ccc(/C=C/C(=O)NO)cc2)N1` came in with an IC50 of 3320 nM.
`Cc1[nH]c2ccccc2c1C[C@H](NCc1ccc(/C=C/C(=O)NO)cc1)C(N)=O` registered an IC50 of 150 nM.
